Data: patent publication US20240376114A1, “NUCLEAR TRANSPORT MODULATORS AND USES THEREOF” (Karyopharm Therapeutics Inc., priority 2011, published 2024)
Read-outs that look alike come from different tables or passages of the source.

Experiments:
[1] = CellTiter 96 AQueous One Solution (MTS) cell proliferation assay; type: cell-based; details: human, MM.1S multiple myeloma cells; MM.1S cells, 72 h treatment; read-out: Cytotoxicity [EC50]
Description: (§1) The CellTiter 96® AQueous One Solution cell proliferation assay (Promega) was used on MM.1S multiple myeloma cell line to study the cytotoxic and cytostatic properties of the compounds. The assay is based on the cleavage of the tetrazolium salt, MTS, in the presence of an electron-coupling reagent PES (phenazine ethosulfate). The MTS tetrazolium compound is bioreduced by cells into a colored formazan product that is soluble in tissue culture medium. This conversion is presumably accomplished by NADPH or NADH produced by dehydrogenase enzymes in metabolically active cells. Assays are performed by adding a small amount of the CellTiter 96® AQueous One solution reagent directly to culture wells, incubating for 1-4 hours and then recording the absorbance at 490 nm with a 96-well plate reader.
(§2) The cells were seeded at 5×10^3 to 1.5×10^4 cells (depending on cell type) in each well of a 96-well plate in 100 μL of fresh culture medium and adherent cells were allowed to attach overnight. The stock solutions of the compounds were diluted in cell culture medium to obtain eight concentrations of each drug, ranging from 1 nM to 30 μM and DMSO at less than 1% v/v was used as a negative control. The resulting drug solutions were transferred onto the cells. After 72 h of treatment, 20 μl of CellTiter 96® AQueous reagent was added into each well of the 96-well assay plates and the plate was incubated at 37° C. for 1-4 hours in a humidified, 5% CO2 atmosphere. Then the absorbance of each well was recorded at 490 nm using a 96-well plate reader. In most cases, the assay was performed in triplicate and the results were presented as half maximal inhibitory concentration (IC50). Optical density versus compound concentration was plotted and analyzed using non-linear regression equations (IDBS XLfit) and the IC50 for each compound was calculated.

[2] = Pharmacokinetic (PK) assay, plasma AUC; type: in vivo; details: mouse, PO
Method: Pharmacokinetics (PK) play an increasing role in drug discovery and development. Pharmacokinetics is the quantitative study of the time course of drug absorption, distribution, metabolism and/or excretion. When a drug is administered, it distributes rapidly from its administration site into the systemic blood circulation. One measure of the extent of a therapeutic agent's distribution is the area under the plasma concentration-time curve (AUC), calculated to the last measured concentration (AUCt) and extrapolated to infinity (AUCinf). AUC is thus a useful metric to quantitate drug exposure. AUC. Blood was collected from mice (N=3) to contribute to the total of 10 time points (pre-dose, 5 min, 15 min, 30 min, 1 hour, 2 hours, 4 hours, 8 hours, 12 hours and 24 hours post dose). Mice were bled on a rotating basis, each mouse contributing 3 time points to the blood collection. At the designated time points, animals were anaesthetized under isoflurane, and approximately 110 μL of blood per time point was collected via retro-orbital puncture into pre-cooled K2EDTA (anti-coagulant) tubes. Blood samples were put on wet ice and centrifuged (2000 g, 5 min at 4° C.) to obtain plasma within 30 minutes of sample collection. All samples were stored frozen at approximately −80° C. until analysis. Prior to analysis, samples were mixed with internal standard (dexamethasone) in acetonitrile, vortexed, centrifuged, and supernatant was injected for analysis. Concentration of compounds in plasma was determined using LC-MS-MS instrumentation (API 4000, Triple Quadruple with electrospray ionization; Acuity Ultra Performance Liquid Chromatography column C18, with MeOH and formic acid as organic solvents). AUC values were calculated using WinNonlin Professional 6.2 software package, non-compartmental pharmacokinetic model NCA200.

[3] = Brain to plasma (B:P) ratio determination; type: in vivo; details: brain and plasma; mouse, PO at 10 mg/kg, 2 hours post-dose
Description: The brain to plasma (B:P) ratio is one method of quantifying the relative distribution of a therapeutic agent in brain tissue to that in circulation and, as such, provides one indication of the brain penetration of a given therapeutic agent. A high brain to plasma ratio is preferred when targeting diseases localized in the central nervous system (CNS), including the brain and the cerebrospinal fluid. However, a lower brain to plasma ratio is generally preferable for non-CNS therapeutic agents to minimize brain penetration and avoid potential side effects caused by unwanted accumulation of the therapeutic agents in the brain and CNS tissue.
Brain to Plasma (B:P) Ratio. […] Following collection, brain tissue was rinsed with cold saline, dried on filter paper, weighed and snap-frozen by placing on dry ice. All samples were stored frozen at approximately −80° C. until analysis. […] Plasma samples were treated with the identical method (except homogenization step) and the concentration of compound in each matrix was calculated based on generated standard curves.

[4] = system: MM.1S multiple myeloma cell line; test: CellTiter 96 AQueous One Solution (MTS) cell proliferation assay; type: cell-based
Description: as §1, §2

[5] = 5 mg/kg, 5 mpk, read-out: AUCInf hr * ng/mL (mouse, PO), tested at 5 mpk
[6] = 10 mg/kg, 10 mpk, read-out: AUCInf hr * ng/mL (mouse, PO, 10 mpk)
[7] = MM.1S cells, 72 h treatment, read-out: Cytotoxicity [EC50]

| Molecule | EC50 at 72 h [1] [nM] | other results |
| --- | --- | --- |
| CC1(O)CN(C(=O)/C=C\n2cnc(-c3cc(C(F)(F)F)cc(C(F)(F)F)c3)n2)C1 [Example 8, (Z)-3-(3-(3,5-bis(trifluoromethyl)phenyl)-1H-1,2,4-triazol-1-yl)-1-(3-hydroxy-3-methylazetidin-1-yl)prop-2-en-1-one] | < 1000 | AUC(0-inf) [2, 5]: 9050 ng·h/mL; Kp at 2 h [3]: 3.16 |
| (E)-3-(6-(3,5-bis(trifluoromethyl)phenyl)pyridin-2-yl)-1-(3,3-difluoroazetidin-1-yl)prop-2-en-1-one [Compound 15] | – | EC50 [4]: > 10 µM |
| O=C(/C=C\n1cnc(-c2cc(C(F)(F)F)cc(C(F)(F)F)c2)n1)N1CC(F)C1 [Example 7, (Z)-3-(3-(3,5-bis(trifluoromethyl)phenyl)-1H-1,2,4-triazol-1-yl)-1-(3-fluoroazetidin-1-yl)prop-2-en-1-one] | < 1000 | AUC(0-inf) [2, 6]: 2510 ng·h/mL |
| NCC1(F)CN(C(=O)/C=C\n2cnc(-c3cc(C(F)(F)F)cc(C(F)(F)F)c3)n2)C1 [Compound 60, (Z)-1-(3-(aminomethyl)-3-fluoroazetidin-1-yl)-3-(3-(3,5-bis(trifluoromethyl)phenyl)-1H-1,2,4-triazol-1-yl)prop-2-en-1-one] | < 1000 | AUC(0-inf) [2, 5]: 1240 ng·h/mL; Kp at 2 h [3]: 13.3 |
| O=C(/C=C\n1cnc(-c2cc(F)cc(C(F)(F)F)c2)n1)N1CC(F)(F)C1 [Example 2, (Z)-1-(3,3-difluoroazetidin-1-yl)-3-(3-(3-fluoro-5-(trifluoromethyl)phenyl)-1H-1,2,4-triazol-1-yl)prop-2-en-1-one] | < 1000 | AUC(0-inf) [2, 6]: 396 ng·h/mL |
| (Z)-3-(3-(3,5-bis(trifluoromethyl)phenyl)-1H-1,2,4-triazole-1-yl)-N-(1-(5-methylpyrimidine-2-yl)ethyl)acrylamide [Compound 21] | – | EC50 [4, 7]: 1 to 10 µM |
| (Z)-3-(2-(3,5-bis(trifluoromethyl)phenyl)-1H-pyrrol-1-yl)-1-(3,3-difluoroazetidin-1-yl)prop-2-en-1-one [Compound 65] | – | EC50 [4, 7]: > 10 µM |
| O=C(/C=C\n1cnc(-c2cc(C(F)(F)F)cc(C(F)(F)F)c2)n1)NCc1cnco1 [Example 11, (Z)-3-(3-(3,5-bis(trifluoromethyl)phenyl)-1H-1,2,4-triazol-1-yl)-N-(oxazol-5-ylmethyl)acrylamide] | < 1000 | AUC(0-inf) [2, 5]: 3080 ng·h/mL |
| O=C(/C=C\n1cnc(-c2cc(C(F)(F)F)cc(C(F)(F)F)c2)n1)N1CC(F)(C(=O)O)C1 [Compound 62, (Z)-1-(3-(3-(3,5-bis(trifluoromethyl)phenyl)-1H-1,2,4-triazol-1-yl)acryloyl)-3-fluoroazetidine-3-carboxylic acid] | 1000 to 10000 | – |
| NC1C2CN(C(=O)/C=C\n3cnc(-c4cc(C(F)(F)F)cc(C(F)(F)F)c4)n3)CC12 (stereo not drawn) [Compound 57, (Z)-1-(6-amino-3-azabicyclo[3.1.0]hexan-3-yl)-3-(3-(3,5-bis(trifluoromethyl)phenyl)-1H-1,2,4-triazol-1-yl)prop-2-en-1-one] | < 1000 | – |
| O=C(/C=C\n1cnc(-c2cc(C(F)(F)F)cc(C(F)(F)F)c2)n1)NNc1cnccn1 [Compound 70] | < 1000 | AUC(0-inf) [2, 6]: 10100 ng·h/mL |
| O=C(/C=C\n1cnc(-c2cc(C(F)(F)F)cc(C(F)(F)F)c2)n1)NCC1CCCNC1 (stereo not drawn) [Compound 19, (Z)-3-(3-(3,5-bis(trifluoromethyl)phenyl)-1H-1,2,4-triazol-1-yl)-N-(piperidin-3-ylmethyl)acrylamide] | 1000 to 10000 | – |
| O=C1CC(c2cc(C(F)(F)F)cc(C(F)(F)F)c2)CN1/C=C/C(=O)N1CC(F)(F)C1 (stereo not drawn) [Compound 44, (E)-4-(3,5-bis(trifluoromethyl)phenyl)-1-(3-(3,3-difluoroazetidin-1-yl)-3-oxoprop-1-enyl)pyrrolidin-2-one] | > 10000 | – |
| O=C(/C=C\n1cnc(-c2cc(C(F)(F)F)cc(C(F)(F)F)c2)n1)NNc1ccccn1 [Compound 71] | < 1000 | AUC(0-inf) [2, 6]: 10800 ng·h/mL; Kp at 2 h [3]: 1.8 |
| O=C(/C=C\n1cnc(-c2cc(C(F)(F)F)cc(C(F)(F)F)c2)n1)N1CCC1 [Compound 23, (Z)-1-(azetidin-1-yl)-3-(3-(3,5-bis (trifluoromethyl)phenyl)-1H-1,2,4-triazol-1-yl) prop-2-en-1-one] | < 1000 | AUC(0-inf) [2, 6]: 521 ng·h/mL |
| N#CC1CN(C(=O)/C=C\n2cnc(-c3cc(C(F)(F)F)cc(C(F)(F)F)c3)n2)C1 [Compound 54, (Z)-1-(3-(3-(3,5-bis(trifluoromethyl)phenyl)-1H-1,2,4-triazol-1-yl)acryloyl)azetidine-3-carbonitrile] | < 1000 | – |
| O=C(/C=C\n1cnc(-c2cc(C(F)(F)F)cc(C(F)(F)F)c2)n1)N1CCC2(CNC2)C1 [Compound 58, (Z)-3-(3-(3,5-bis(trifluoromethyl)phenyl)-1H-1,2,4-triazol-1-yl)-1-(2,6-diazaspiro[3.4]octan-6-yl)prop-2-en-1-one 2,2,2-trifluoroacetate] | < 1000 | – |
| O=C(O)C1CN(C(=O)/C=C\n2cnc(-c3cc(C(F)(F)F)cc(C(F)(F)F)c3)n2)C1 [Compound 55, (Z)-1-(3-(3-(3,5-bis(trifluoromethyl)phenyl)-1H-1,2,4-triazol-1-yl)acryloyl)azetidine-3-carboxylic acid] | 1000 to 10000 | – |
| CN(C)CC1CN(C(=O)/C=C\n2cnc(-c3cc(C(F)(F)F)cc(C(F)(F)F)c3)n2)C1 [Compound 25, (Z)-3-(3-(3,5-bis(trifluoromethyl)phenyl)-1H-1,2,4-triazol-1-yl)-1-(3-((dimethylamino)methyl)azetidin-1-yl)prop-2-en-1-one] | < 1000 | AUC(0-inf) [2, 6]: 2640 ng·h/mL |
| CN(Cc1cnco1)C(=O)/C=C\n1cnc(-c2cc(C(F)(F)F)cc(C(F)(F)F)c2)n1 [Compound 22, (Z)-3-(3-(3,5-bis(trifluoromethyl)phenyl)-1H-1,2,4-triazol-1-yl)-N-methyl-N-(oxazol-5-ylmethyl)acrylamide] | 1000 to 10000 | – |
| O=C(/C=C\c1n[nH]c(-c2cc(C(F)(F)F)cc(C(F)(F)F)c2)n1)N1CC(F)(F)C1 [Compound 12, (Z)-3-(5-(3,5-bis(trifluoromethyl)phenyl)-4H-1,2,4-triazol-3-yl)-1-(3,3-difluoroazetidin-1-yl)prop-2-en-1-one] | 1000 to 10000 | – |
